Measured values from ChEMBL document CHEMBL6134873, “Identification of Novel Cyclobutane-Based Derivatives as Potent Acetyl-CoA Carboxylase Allosteric Inhibitors for Nonalcoholic Steatohepatitis Drug Discovery” (J Med Chem, 2025).
pIC50: −log10 of the molar value.

Experiments:
[1] = AUC (0 to t) in Sprague-Dawley rat at 3 mg/kg, po measured for 0.25 to 24 hrs by LC-MS/MS analysis; format: ADME, organism-based; details: in vivo, time 0.25-24 hrs
[2] = Volume of distribution in Sprague-Dawley rat at 1 mg/kg, iv measured for 0.25 to 24 hrs by LC-MS/MS analysis; format: ADME, organism-based; details: in vivo, time 0.25-24 hrs
[3] = Intrinsic clearance in human liver microsomes; format: ADME, Microsome; details: read-out: CLH
[4] = Half life in Sprague-Dawley rat at 3 mg/kg, po measured for 0.25 to 24 hrs by LC-MS/MS analysis; format: ADME, organism-based; details: in vivo, time 0.25-24 hrs
[5] = MRT (0 to t) in Sprague-Dawley rat at 3 mg/kg, po measured for 0.25 to 24 hrs by LC-MS/MS analysis; format: ADME, organism-based; details: in vivo, time 0.25-24 hrs
[6] = Protein binding in mouse plasma; format: ADME, cell-free; details: read-out: PPB (converted)
[7] = Oral bioavailability in Sprague-Dawley rat at 3 mg/kg measured for 0.25 to 24 hrs by LC-MS/MS analysis; format: ADME, organism-based; details: in vivo, time 0.25-24 hrs
[8] = biological target: T1, Cytochrome P450 1A2 (Homo sapiens, UniProt P05177); assay: Inhibition of CYP1A2 (unknown origin); format: ADME
T1 sequence (P05177 whole entry): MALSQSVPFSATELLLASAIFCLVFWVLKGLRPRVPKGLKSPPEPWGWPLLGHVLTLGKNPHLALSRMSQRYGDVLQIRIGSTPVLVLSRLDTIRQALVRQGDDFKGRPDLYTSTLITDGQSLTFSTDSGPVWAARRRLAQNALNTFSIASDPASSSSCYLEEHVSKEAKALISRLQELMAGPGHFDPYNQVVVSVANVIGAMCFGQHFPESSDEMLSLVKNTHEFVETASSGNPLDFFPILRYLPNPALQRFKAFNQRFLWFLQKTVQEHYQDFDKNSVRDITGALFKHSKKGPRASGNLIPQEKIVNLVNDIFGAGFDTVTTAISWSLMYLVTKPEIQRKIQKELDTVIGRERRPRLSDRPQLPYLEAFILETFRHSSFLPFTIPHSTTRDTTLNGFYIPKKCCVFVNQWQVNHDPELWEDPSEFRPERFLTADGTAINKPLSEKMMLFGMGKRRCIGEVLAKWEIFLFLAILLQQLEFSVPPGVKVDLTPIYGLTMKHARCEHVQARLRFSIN

[9] = Toxicity in Sprague-Dawley rat model of DEN-induced liver fibrosis assessed as animal mortality at 3 to 10 mg/kg, po qd treated for 4 weeks; format: organism-based; details: in vivo, 672 h, dose 3-10 mg/kg
[10] = AUC (0 to t) in Sprague-Dawley rat at 1 mg/kg, iv measured for 0.25 to 24 hrs by LC-MS/MS analysis; format: ADME, organism-based; details: in vivo, time 0.25-24 hrs
[11] = Stability of compound assessed as (1S,3s)-3-(1-((R)-2-(2-hydroxyphenyl)-2-((tetrahydro-2H-pyran-4-yl)oxy)ethyl)-5-methyl-6-(oxazol-2-yl)-2,4-dioxo-1,4-dihydrothieno[2,3-d]pyrimidin-3(2H)-yl)-1-methylcyclobutane-1-carboxylic acid metabolite formation by measuring retention time; format: ADME
[12] = Mutagenicity in Salmonella typhimurium by mini-Ames test; format: toxicity; details: salmonella enterica subsp. enterica serovar typhimurium
[13] = in vivo; details: Sprague-Dawley, rat, plasma, po, 3 mg/kg
Description: Drug concentration in plasma of Sprague-Dawley rat at 3 mg/kg, po measured after 4 hrs by LC-MS/MS analysis

[14] = Cmax in Sprague-Dawley rat at 3 mg/kg, po measured for 0.25 to 24 hrs by LC-MS/MS analysis; format: ADME, organism-based; details: in vivo, time 0.25-24 hrs
[15] = Protein binding in monkey plasma; format: ADME, cell-free, Macaca mulatta; details: rhesus monkey, read-out: PPB (converted)
[16] = MRT (0 to t) in Sprague-Dawley rat at 1 mg/kg, iv measured for 0.25 to 24 hrs by LC-MS/MS analysis; format: ADME, organism-based; details: in vivo, time 0.25-24 hrs
[17] = biological target: Cytochrome P450 3A4 (Homo sapiens, UniProt P08684); assay: Inhibition of CYP3A4 (unknown origin) using testosterone as substrate; format: ADME
Cytochrome P450 3A4, sequence (P08684 whole entry): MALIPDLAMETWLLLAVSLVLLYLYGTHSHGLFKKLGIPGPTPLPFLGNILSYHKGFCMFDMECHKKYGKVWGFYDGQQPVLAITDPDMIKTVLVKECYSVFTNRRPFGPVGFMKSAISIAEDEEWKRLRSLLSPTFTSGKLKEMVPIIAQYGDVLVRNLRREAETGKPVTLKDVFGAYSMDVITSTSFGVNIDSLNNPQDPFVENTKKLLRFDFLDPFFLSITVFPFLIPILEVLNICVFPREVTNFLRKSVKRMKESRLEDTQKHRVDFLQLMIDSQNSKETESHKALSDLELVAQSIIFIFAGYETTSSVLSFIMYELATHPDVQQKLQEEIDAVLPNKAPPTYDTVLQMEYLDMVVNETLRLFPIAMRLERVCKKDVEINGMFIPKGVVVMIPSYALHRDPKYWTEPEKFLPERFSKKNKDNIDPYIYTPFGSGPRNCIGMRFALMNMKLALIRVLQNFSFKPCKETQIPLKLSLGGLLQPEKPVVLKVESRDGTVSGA

[18] = biological target: Acetyl-CoA carboxylase 2 (Homo sapiens, UniProt O00763)
Acetyl-CoA carboxylase 2, sequence (O00763 whole entry): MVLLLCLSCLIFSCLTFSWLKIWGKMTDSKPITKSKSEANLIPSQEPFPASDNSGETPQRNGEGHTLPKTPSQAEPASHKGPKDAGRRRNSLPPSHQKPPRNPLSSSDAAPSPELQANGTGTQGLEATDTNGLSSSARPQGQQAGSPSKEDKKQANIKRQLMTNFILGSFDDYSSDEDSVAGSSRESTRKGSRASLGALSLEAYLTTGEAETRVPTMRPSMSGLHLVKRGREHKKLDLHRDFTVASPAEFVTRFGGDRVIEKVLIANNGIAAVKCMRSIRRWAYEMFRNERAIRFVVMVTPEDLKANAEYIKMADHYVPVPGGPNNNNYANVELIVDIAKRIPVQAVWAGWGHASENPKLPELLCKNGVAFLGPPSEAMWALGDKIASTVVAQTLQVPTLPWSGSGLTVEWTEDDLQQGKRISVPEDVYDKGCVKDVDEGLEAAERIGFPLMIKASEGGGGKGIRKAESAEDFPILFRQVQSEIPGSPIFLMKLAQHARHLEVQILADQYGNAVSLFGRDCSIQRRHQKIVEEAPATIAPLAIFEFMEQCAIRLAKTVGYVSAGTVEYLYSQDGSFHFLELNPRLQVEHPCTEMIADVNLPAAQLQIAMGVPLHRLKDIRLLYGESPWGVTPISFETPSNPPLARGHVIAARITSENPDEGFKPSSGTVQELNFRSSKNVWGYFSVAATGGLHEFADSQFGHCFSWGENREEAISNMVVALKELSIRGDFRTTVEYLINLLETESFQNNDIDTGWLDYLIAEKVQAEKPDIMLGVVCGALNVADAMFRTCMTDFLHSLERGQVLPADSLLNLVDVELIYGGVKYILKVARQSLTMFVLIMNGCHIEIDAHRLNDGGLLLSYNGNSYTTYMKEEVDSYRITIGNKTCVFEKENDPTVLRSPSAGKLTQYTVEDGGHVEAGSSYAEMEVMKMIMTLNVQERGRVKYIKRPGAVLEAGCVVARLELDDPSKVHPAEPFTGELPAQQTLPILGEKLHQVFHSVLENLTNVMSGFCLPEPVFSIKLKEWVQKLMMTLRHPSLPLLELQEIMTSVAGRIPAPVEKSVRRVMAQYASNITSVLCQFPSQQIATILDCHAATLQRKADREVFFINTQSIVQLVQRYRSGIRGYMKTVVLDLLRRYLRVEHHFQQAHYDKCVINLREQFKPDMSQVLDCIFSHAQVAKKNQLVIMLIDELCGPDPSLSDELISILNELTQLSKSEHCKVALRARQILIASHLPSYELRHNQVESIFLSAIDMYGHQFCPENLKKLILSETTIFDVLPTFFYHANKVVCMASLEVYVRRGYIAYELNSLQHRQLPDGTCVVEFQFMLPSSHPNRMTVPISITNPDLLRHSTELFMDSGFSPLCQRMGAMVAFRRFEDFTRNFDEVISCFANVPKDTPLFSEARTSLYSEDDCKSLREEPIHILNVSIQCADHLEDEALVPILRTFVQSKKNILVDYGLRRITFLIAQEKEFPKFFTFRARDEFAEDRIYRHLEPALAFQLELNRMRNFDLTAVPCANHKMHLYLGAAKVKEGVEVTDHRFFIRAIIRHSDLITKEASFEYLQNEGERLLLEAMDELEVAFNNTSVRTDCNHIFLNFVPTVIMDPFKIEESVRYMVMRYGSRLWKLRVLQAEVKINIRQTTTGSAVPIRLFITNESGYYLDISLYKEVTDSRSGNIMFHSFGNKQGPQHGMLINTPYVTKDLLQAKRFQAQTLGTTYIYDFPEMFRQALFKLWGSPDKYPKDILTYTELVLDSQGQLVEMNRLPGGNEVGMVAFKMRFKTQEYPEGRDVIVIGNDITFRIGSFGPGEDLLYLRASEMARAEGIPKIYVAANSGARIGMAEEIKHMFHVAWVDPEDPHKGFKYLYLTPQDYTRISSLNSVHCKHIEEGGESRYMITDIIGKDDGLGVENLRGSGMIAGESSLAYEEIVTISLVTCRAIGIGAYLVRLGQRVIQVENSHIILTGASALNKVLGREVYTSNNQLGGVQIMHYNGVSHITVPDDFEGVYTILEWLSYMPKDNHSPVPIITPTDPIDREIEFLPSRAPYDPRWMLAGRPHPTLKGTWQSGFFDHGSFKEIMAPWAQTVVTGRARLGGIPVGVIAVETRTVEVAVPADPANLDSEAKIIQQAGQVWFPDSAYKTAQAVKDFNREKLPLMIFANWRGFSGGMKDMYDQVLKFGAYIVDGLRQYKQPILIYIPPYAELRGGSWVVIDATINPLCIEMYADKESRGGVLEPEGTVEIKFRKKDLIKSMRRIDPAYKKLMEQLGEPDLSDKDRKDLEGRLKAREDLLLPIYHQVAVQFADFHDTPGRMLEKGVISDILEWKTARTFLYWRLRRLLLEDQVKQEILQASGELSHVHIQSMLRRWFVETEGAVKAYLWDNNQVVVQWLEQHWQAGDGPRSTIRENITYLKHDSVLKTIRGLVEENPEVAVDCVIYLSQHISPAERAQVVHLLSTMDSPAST
Description: Inhibition of recombinant human ACC2 using acetyl-Co A as substrate incubated for 60 mins in presence of ATP by ADP-Glo assay

[19] = in vivo; details: Sprague-Dawley, rat, liver, po, 3 mg/kg
Description: Drug concentration in liver of Sprague-Dawley rat at 3 mg/kg, po measured after 0.25 hrs by LC-MS/MS analysis

[20] = Intrinsic clearance in mouse liver microsomes; format: ADME, Microsome; details: read-out: CLH
[21] = biological target: Cytochrome P450 2D6 (Homo sapiens, UniProt P10635); assay: Inhibition of CYP2D6 (unknown origin); format: ADME
Cytochrome P450 2D6, sequence (P10635 whole entry): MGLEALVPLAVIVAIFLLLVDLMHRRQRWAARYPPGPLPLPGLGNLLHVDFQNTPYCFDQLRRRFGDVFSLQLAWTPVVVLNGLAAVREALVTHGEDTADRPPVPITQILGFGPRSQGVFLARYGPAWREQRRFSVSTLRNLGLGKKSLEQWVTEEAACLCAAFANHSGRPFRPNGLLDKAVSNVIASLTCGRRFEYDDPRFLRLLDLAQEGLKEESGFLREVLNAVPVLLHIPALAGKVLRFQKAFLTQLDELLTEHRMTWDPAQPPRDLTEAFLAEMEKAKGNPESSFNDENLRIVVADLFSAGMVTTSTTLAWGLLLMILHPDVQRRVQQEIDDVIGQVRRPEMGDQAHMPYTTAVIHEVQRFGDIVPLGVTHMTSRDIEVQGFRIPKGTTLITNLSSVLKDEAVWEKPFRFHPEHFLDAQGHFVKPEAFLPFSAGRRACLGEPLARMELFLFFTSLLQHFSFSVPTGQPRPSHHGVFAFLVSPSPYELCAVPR

[22] = Inhibition of fatty acid synthesis in human HepG2 cells preincubated for 1.5 hrs followed by [14C] acetate addition measured after 1.5 hrs by liquid scintillation counter analysis; format: functional, cell-based

For COc1ccccc1[C@H](Cn1c(=O)n([C@H]2C[C@@](C)(C(=O)O)C2)c(=O)c2c(C)c(-c3ncco3)sc21)OC1CCOCC1, the AUC(0-t) [1] was 174 ng·h/mL, the Vd [2] was 2.8 L/kg and the CLint scaled [3] was < 8.6 mL/min/kg. The half-life [4] was 3.3 h, the MRT last [5] was 2.7 h and the fraction unbound [6] was 0.054. For the same compound, the bioavailability [7] was 22%, the pIC50 [8] was < 4.52 and the Activity [9] was “Non-toxic”. The AUC(0-t) [10] was 263 ng·h/mL, the Retention_time [11] was 9.36 min and the Activity [12] was “Non-toxic”. It also gave a concentration at 4 h [13] of 72.8 ng/mL, a Cmax [14] of 38 ng/mL and a fraction unbound [15] of 0.043. For the same compound, the MRT last [16] was 0.3 h, the pIC50 [17] was < 4.52 and the pIC50 [18] was 8.43. The concentration at 0.25 h [19] was 3390 ng/mL, the CLint scaled [20] was 44.4 mL/min/kg and the pIC50 [21] was < 4.52. It also gave a pIC50 [22] of 8.16.
